Columns and labels:
[1] = tested on: ICAM-1−/− adipose stem cells; assay: in vitro adipogenic differentiation of adipose stem cells derived from ICAM-1−/− mice (oil red staining, Western blot, Real time PCR); format: cell-based
Experimental: (§1) FIG. 6E and FIG. 6F respectively show the mRNA levels of Pparg (FIG. 6E) and Fabp4 (FIG. 6F) after adipogenic differentiation of WT and ICAM-1^−/− mice-derived adipose stem cells under […] or DMSO treatment, using Real time PCR.
(§2) Cultivation of adipose stromal cells The sorted CD31^−CD45^−Sca-1^+PDGFR-α^+ adipose stromal cells as well as CD31^−CD45^−Sca-[…]-1^− and other components were cultured in DMEM low-sugar medium supplemented with 10% FBS alone or in combination. In some experiments, adherent adipose mononuclear cells were directly cultured in DMEM low-sugar medium supplemented with 10% FBS, and immune cells and vascular endothelial cells were removed during the medium exchange and passage steps to obtain simple adipose stromal cells.
(§3) For preparing differentiation medium, 0.5 mM 3-isobutyl-1-methylxanthine (IBMX), 50 μM indomethacin, 10 μg/ml insulin and 0.5 μM dexamethasone were added to 10% FBS of DMEM high glucose medium. When the adipose stromal cells grew to 100% confluence, the differentiation medium was changed and the medium was changed every two days, and it was taken about 5 days until differentiation was completed.
(§4) Rho and ROCK can negatively regulate adipogenic differentiation in a cytoskeleton-dependent or insulin signal-dependent manner, and our RNA-seq data also supports the role of Rho GTPase in adipose differentiation. In order to test whether Rho and ROCK are involved in the inhibitory effect of ICAM-1 on adipogenic differentiation of adipose stem cells, we used ROCK inhibitor Y-27632 to treat adipose stem cells respectively. […] Therefore, ICAM-1 inhibits the adipogenic differentiation of adipose stem cells through the Rho-ROCK pathway.
(§5) In order to verify whether Rho GTPase activity can reverse the excessive adipogenic differentiation caused by ICAM-1 deletion, we used the Rho agonist Rho activator II (RA2), which can constitutively activate RhoGTPase. […] It is important that the difference in the expression of adipogenic differentiation genes between wild-type and ICAM-1^−/− cells is eliminated by Rho

[2] = tested on: wild-type adipose stem cells; assay: in vitro adipogenic differentiation of adipose stem cells derived from WT mice (oil red staining, Western blot, Real time PCR); format: cell-based
Experimental: as §1, §2, §3, §4, §5

[3] = tested on: WT mice; assay: local RA2 injection into right inguinal fat pad of WT mice with high-fat diet induced obesity; format: in vivo; settings: RA2 locally into right inguinal fat pad, 10 weeks
Experimental: (§6) FIG. 6L-6N respectively show the visual observation result (FIG. 6L), adipose tissue observation result (FIG. 6M) and statistical analysis of changes in subcutaneous adipose tissue weight (6N) in the right subcutaneous adipose tissue of WT mice and ICAM-1^−/− mice that were given a high-fat diet induced obesity is injected with RA2 (every 2 days, […]).
(§7) This asymmetry is not observed in RA2-treated WT mice and PBS-treated mice (FIG. 6L).

[4] = tested on: ICAM-1−/− mice; assay: local RA2 injection into right inguinal fat pad of ICAM-1−/− mice with high-fat diet induced obesity; format: in vivo; settings: RA2 locally into right inguinal fat pad, 10 weeks
Experimental: as §6, §7

[5] = tested on: human adipose stem cells; assay: adipogenic differentiation induction of human primary adipose stromal cells (ICAM-1 siRNA knockdown, RA2); format: cell-based; settings: RA2 treatment during differentiation; FIG. 7H-J
Experimental: FIGS. 7F-7G respectively show the adipogenic differentiation-related gene expression and Rho GTP activity of adipose stem cells during adipogenic differentiation with the expression of ICAM-1 interfered.
FIGS. 7H-7J respectively show the expressions of adipogenic differentiation-related genes (PPARG, CEBPA, FABP4) in adipose stem cells observed with RA2 activated Rho after interfering with ICAM-1 expression.
as §3
First, the expression content of ICAM-1 in human adipose tissue was analyzed. Currently, there is no recognized characteristic molecule of human preadipocytes. […] These ICAM-1^+ cells, like adipose tissue in mice, are mainly located around blood vessels (FIG. 7B). To test the regulatory effect of ICAM-1 on human adipose stem cells, we isolated human primary adipose stromal cells for adipogenic differentiation induction. […]

| Compound | adipogenic differentiation (oil red staining) ([1]; 10 μM Y-27632 compared with DMSO-treated group, ICAM-1−/− cells, FIG. 6C) | expression level of Perilipin A protein (Western blot) ([1]; Y-27632 vs DMSO, ICAM-1−/− cells after adipogenic differentiation) | expression of adipogenic differentiation-related proteins and genes (Perilipin A, Pparg, Fabp4) ([1]; inhibiting ROCK (Y-27632 vs DMSO), ICAM-1−/− cells, FIG. 6D-F) | adipogenic differentiation (oil red staining) ([2]; 10 μM Y-27632 compared with DMSO-treated group, wild-type cells, FIG. 6C) | expression level of Perilipin A protein (Western blot) ([2]; Y-27632 vs DMSO, wild-type cells after adipogenic differentiation) | expression of adipogenic differentiation-related proteins and genes (Perilipin A, Pparg, Fabp4) ([2]; inhibiting ROCK (Y-27632 vs DMSO), wild-type cells, FIG. 6D-F) | asymmetry of inguinal fat pads on both sides ([3]; FIG. 6L) | fat weight (subcutaneous adipose tissue) ([3]; every 2 days, FIG. 6M-N) | excessive adipogenic differentiation (inguinal fat pads, injected right vs left side) ([4]; FIG. 6L) | fat weight (subcutaneous adipose tissue) ([4]; every 2 days, FIG. 6M-N) | adipogenic differentiation ability (oil red staining) ([1]; RA2 added during in vitro differentiation, ICAM-1−/− cells, FIG. 6G) | difference in the expression of adipogenic differentiation genes between wild-type and ICAM-1−/− cells ([1]; Rho GTPase activation by RA2, FIG. 6H-K) | adipogenic differentiation genes Pparg, Cebpa, Fabp4, Plin1 (mRNA, Real time PCR) ([1]; Rho GTPase activation by RA2, ICAM-1−/− precursor cells, FIG. 6H-K) | adipogenic differentiation ability (oil red staining) ([2]; RA2 added during in vitro differentiation, wild-type cells, FIG. 6G) | adipogenic differentiation genes Pparg, Cebpa, Fabp4, Plin1 (mRNA, Real time PCR) ([2]; Rho GTPase activation by RA2, wild-type cells, FIG. 6H-K) | enhancement of adipogenic differentiation of ICAM-1 knock-down cells (PPARG, CEBPA, FABP4 expression) [5] |
| --- | --- | --- | --- | --- | --- | --- | --- | --- | --- | --- | --- | --- | --- | --- | --- | --- |
| C[C@@H](N)[C@H]1CC[C@H](C(=O)Nc2ccncc2)CC1 [Y-27632] | no obvious effect | little effect | not obvious | significantly accelerate | significantly increase | significantly increase | – | – | – | – | – | – | – | – | – | – |
| Rho activator II [RA2] | – | – | – | – | – | – | not observed | not | weakened | significantly reduce | significantly inhibited | eliminated | extensive reduction | not obvious | only Pparg and Fabp4 are significantly changed | eliminated |
